Reference: US11191798B2, “Extracts of Andrographis paniculata, methods for preparation and use thereof” (NUTRITION SCIENCE PARTNERS LIMITED, priority 2016, dated 2021)

Experiments:
[1] = tested on: FGF1; assay: FGF1 mRNA expression in human T84 cell line (Assay 6); format: cell-based; details: about 24 hours
Method: Enhancement of FGF1 expression of Example 7 and the four ingredients AND, NAND, DAND, and DDAND was investigated in human T84 cell line.
The adherent epithelial cell line T84 was used in the assay. For sustaining cell culture, T84 cells were incubated with DMEM/F-12 (1:1) medium containing 5% FBS at 37° C. with 5% CO2. Sub-culture was performed when cells reached 90% confluence.
(§1) For the assay, the cells were trypsinized and suspended in culture medium. The cell density was determined and adjusted to 1×10^6 cells/mL. Then, the cells were seeded into a 96-well plate and incubated at 37° C. with 5% CO2 overnight.
The two Andrographis paniculata extracts, Standard 1 and Example 7, and AND, NAND, DAND, DDAND, and the mixture of them (named as the mixture of 4 markers, wherein the amounts of AND, NAND, DAND, and DDAND were 69%, 11%, 5%, and 15%, respectively, by weight relative to the weight of the mixture) were serially diluted in DMSO and further diluted in medium. Diluted solution was added into wells. The final concentrations for Standard 1 were: 300 and 100 μg/mL. The final concentration for Example 7 was: 100 μg/mL. The final concentration for NAND, DAND and DDAND was 10 μg/mL and AND was 40 μg/mL. The final concentrations for mixture of 4 markers were: 100 and 30 μg/mL. The plate was incubated at 37° C. with 5% CO2 for about 24 hours. The supernatants were removed and 150 μL RLT buffer was added into each well. The plate was stored at −80° C. until RNA extraction.
Total RNA was extracted using RNeasy 96 kit (QIAGEN) and cDNA was synthesized from RNA template using High Capacity cDNA RT kit (Applied Biosystems). Quantitative real-time PCR detection of gene expression was using SYBR Premix Ex Taq TM II (TakaRa). Expression of genes analyzed by q-PCR was normalized to GAPDH using the fold change (2^−ΔΔCT) method. The formula used in the calculation is shown as follows: Fold=2^−ΔΔCT=2^−[(CT^test sample^−CT^test sample_GAPDH^)−(CT^minimum^−CT^minimum_GAPDH^)] where CTtest sample is the CT value of target gene in cells treated with the test samples; CTtest sample-GAPDH is the CT value of GAPDH gene in cells treated with the test samples; CTminimum is the CT value of target gene in cells treated without test samples, and CTminimum-GAPDH is the CT value of GAPDH gene in cells treated without test samples.

[2] = tested on: EGF; assay: EGF mRNA expression in epithelial cell line HT29; format: cell-based, human; details: about 24 hours
Method: (§2) Enhancement of EGF and FGF expression were investigated in a human HT-29 and T84 cell lines.
(§3) Two adherent epithelial cell lines, HT29 and T84, were used in the assay. For sustaining cell culture, HT29 cells were incubated in cell culture dish with McCoy's 5a Medium containing 10% FBS, and T84 cells were incubated with DMEM/F-12 (1:1) medium containing 5% FBS. All cells were incubated at 37° C. with 5% CO2. Sub-culture was performed when cells reached 90% confluence.
as §1
(§4) The two Andrographis paniculata extracts, Standard 1 and Example 1, were serially diluted in DMSO and further diluted in medium. Diluted solution was added into wells. The final concentrations for Standard 1 were: 300, 100, 30 and 10 μg/mL. The final concentrations for Example 1 were: 100, 30, 10 and 1 μg/mL. […]
(§5) Total RNA was extracted using RNeasy 96 kit (QIAGEN) and cDNA was synthesized from RNA template using High Capacity cDNA RT kit (Applied Biosystems). Quantitative real-time PCR detection of gene expression was using SYBR Premix Ex Taq TM II (TakaRa). Expression of genes analyzed by q-PCR was normalized to GAPDH using the fold change (2^−ΔΔCT) method. […]

[3] = tested on: FGF1; assay: FGF1 mRNA expression in epithelial cell T84 (Assay 5); format: cell-based, human; details: about 24 hours
Method: as §2, §3, §1, §4, §5

[4] = tested on: FGF2; assay: FGF2 mRNA expression in epithelial cell T84 (Assay 5); format: cell-based, human; details: about 24 hours
Method: as §2, §3, §1, §4, §5

[5] = tested on: EGF; assay: EGF mRNA expression in epithelial cell line T84; format: cell-based, human; details: about 24 hours
Method: as §2, §3, §1, §4, §5

[6] = tested on: DNBS-induced rat colitis; assay: DNBS-induced rat colitis prophylactic model; format: in vivo, Wistar rats
Method: Assay 7: The In Vivo Efficacy of Andrographis Extract in a DNBS-Induced Rat Colitis Prophylactic Model 1. Materials 1.1. Test Compounds and Formulation Methods • Test articles: Two Andrographis paniculata extracts, Example 10 used in Experiment 1 and Example 11 used in Experiment 2. • Control drugs: Standard 1; and Sulfasalazine (SASP), Sigma-Aldrich, Cat S0883.
Oral suspension of the test articles and Standard 1 were prepared as follows: the test articles and Standard 1 were respectively weighed and added into a 50 mL centrifuge tube. 0.5% sodium carboxymethylcellulose (0.5% CMC-Na) was added. Sonicate for 15 min to give suspensions with desired concentration. The fresh-made formulation was stored away from light, and homogenized thoroughly before use. The administration volume was 10 ml/kg.
Oral suspension of SASP was prepared as follows: SASP was weighed and added into a 50 mL centrifuge tube. 0.5% CMC-Na was added. Sonicate for 15 min to give 30 mg/mL suspension. The fresh-made formulation was stored away from light, and homogenized thoroughly before use. The administration volume was 10 ml/kg.
Male Wistar rats, 110-130 g, were purchased from Shanghai SLAC Laboratory Animal Co. Ltd.
Wistar rats were randomized assigned. The fasting rats were anesthetized with 25 mg/kg Zoletil and 0.5 mg/kg xylazine. And colitis was induced by intracolonic administration of 10 mg or 12 mg DNBS dissolved in 0.25 mL of 30% ethanol (v/v). The animals in naive control group were instilled with 30% ethanol only.
• Body weight: Body weights of animals were checked daily on and after grouping. • Diarrhea score: Stool consistency of the animals was monitored and scored daily from the 3rd day after the model induction. Evaluation criteria: 0=formed, 1=moist/sticky, 2=loose, 3=liquid. • Colon weight and length measurement: Rats were sacrificed 4 h post the last dosing on the 6th day. The abdomen was opened by a midline incision. Adhesion degree of colon and other organs was observed. The colon (from cecum end to the anus) was emptied of its content, rinsed with saline. The weight and length of the colon were measured, and then the colon ratio (colon weight/colon length) was calculated. • Histopathology analysis: Proximal colon with obvious ulcer was made into Swiss Rolls, fixed in 10% neutral formalin solution, dehydrated with xylene, embedded in paraffin, sectioned, and stained with hematoxylin and eosin (H&E). […] The severity of lesion was graded based on a semi-quantitative scale using the sum of scores of the following 10 evaluation indicators (see table 7).
All of the data were presented as mean±SD.
Body weight data were analyzed with repeated-measures ANOVA analysis by GraphPad Prism 6.0 software. Fisher's Least Significant Difference (LSD) test was used to perform significance analysis. p value was calculated. *p<0.05 refers to significant difference between vehicle control group and each of the treated groups. **p<0.01 refers to extremely significant difference between vehicle control group and each of the treated groups.
The colon ratio inhibition of each animal was calculated by the following formula, wherein CW refers to colon weight, CL refers to colon length:
The statistical analysis of the data of colon length and colon ratio was performed by Graphpad Prism 6.0 software. Unpaired t test or Mann-Whitney test were applied to analyze the significance analysis between test article treated groups and vehicle treated group, based on the normality of the data.

[7] = Experiment 1, 300 mg/kg PO, mean±SD

## C=C1CC[C@@H]2[C@](C)(CO[C@@H]3O[C@H](CO)[C@@H](O)[C@H](O)[C@H]3O)CCC[C@@]2(C)[C@@H]1CCC1=CCOC1=O [NAND, Neoandrographolide]
[1]; T84, 10 μg/mL
  FGF1 up-regulation effect: did not show similar FGF1 up-regulation effect

## C=C1CCC2C(C)(CO)C(O)CCC2(C)C1/C=C/C1=CCOC1=O (stereo not shown) [DDAND, 14-Deoxy-11,12-dehydroandrographolide]
[1]; T84, 10 μg/mL
  FGF1 up-regulation effect: did not show similar FGF1 up-regulation effect

## C=C1CC[C@@H]2[C@](C)(CO)[C@H](O)CC[C@@]2(C)[C@@H]1CCC1=CCOC1=O [DAND, 14-deoxyandrographolide]
[1]; T84, 10 μg/mL
  FGF1 up-regulation effect: did not show similar FGF1 up-regulation effect

## C=C1CC[C@@H]2[C@](C)(CO)[C@H](O)CC[C@@]2(C)[C@@H]1C/C=C1/C(=O)OC[C@H]1O [AND, Andrographolide]
[2]
  mRNA expression of EGF in HT29 cells: increased
[3]
  mRNA expression of FGF1 in T84 cells: had no similar effect
[1]; T84, 40 μg/mL
  FGF1 up-regulation effect: did not show similar FGF1 up-regulation effect
[4]
  mRNA expression of FGF2 in T84 cells: had no similar effect
[5]
  mRNA expression of EGF in T84 cells: increased

## O=C(O)c1cc(/N=N/c2ccc(S(=O)(=O)Nc3ccccn3)cc2)ccc1O [SASP, Sulfasalazine]
[6]; 300 mg/kg/day, 8 samples
  colon histopathology findings: five samples showed severe mucosal erosion and inflammatory cell infiltration
[6]; Experiment 1, 300 mg/kg PO
  Colon ratio inhibition, %: 44.5%
[6]; [7]
  Colon ration CW/CL (%): 0.0846 ± 0.0089 %
  Crypt abscesses, histopathological score: 0.1 ± 0.4
  Degree of cellular infiltrate, histopathological score: 2.1 ± 0.8
  Degree of erosion/ulcer, histopathological score: 1.6 ± 1.4
  Degree of mucosa edema, histopathological score: 1.6 ± 0.9
  Epithelium hyperplasia, histopathological score: 0.8 ± 0.5
  Goblet cell depletion, histopathological score: 0.9 ± 0.4
  Muscle thickening, histopathological score: 1.4 ± 0.9
  Severe destruction for erosion (%), histopathological score: 0.8 ± 0.7
  Severely affected in infiltration (%), histopathological score: 1.6 ± 0.7
  The sum of score (colon histopathology): 12.5 ± 6.3
  Total area affected (%), histopathological score: 1.6 ± 0.7
